pIC50: −log10 of the molar value.

In assay [1] the target is T1, Muscarinic acetylcholine receptor M4 (Homo sapiens, UniProt P08173). Also: in other assays of this panel Not Active means under 50% inhibition at 10 µM.
T1 sequence (P08173 whole entry): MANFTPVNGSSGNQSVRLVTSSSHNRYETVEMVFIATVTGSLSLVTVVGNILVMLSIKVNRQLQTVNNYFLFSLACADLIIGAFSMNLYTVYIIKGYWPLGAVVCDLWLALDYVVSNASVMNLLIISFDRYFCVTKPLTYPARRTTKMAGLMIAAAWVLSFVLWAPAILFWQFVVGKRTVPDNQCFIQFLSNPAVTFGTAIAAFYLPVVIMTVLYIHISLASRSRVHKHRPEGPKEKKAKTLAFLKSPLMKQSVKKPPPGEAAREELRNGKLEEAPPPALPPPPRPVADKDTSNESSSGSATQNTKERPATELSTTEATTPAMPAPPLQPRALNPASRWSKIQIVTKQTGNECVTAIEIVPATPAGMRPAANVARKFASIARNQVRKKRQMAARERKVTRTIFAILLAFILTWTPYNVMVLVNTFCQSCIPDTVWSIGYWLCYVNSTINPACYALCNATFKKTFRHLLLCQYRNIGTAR
Type of assay: cell membranes, CHO-K1, Membrane. As to conditions: cho-k1.

Assay [2] in a line: DRUGMATRIX: Calcium Channel Type L, Dihydropyridine radioligand binding (ligand: [3H] Nitrendipine). The class given is cell membranes, Rattus norvegicus, Wistar, Cerebral cortex, Membrane. As to conditions: Not Active = under 50% inhibition at 10 µM.
In assay [3] the target is 5-hydroxytryptamine receptor 1B (Rattus norvegicus, UniProt P28564). The class given is cell membranes, Wistar, Cerebral cortex, Membrane. Also: in other assays of this panel Not Active means under 50% inhibition at 10 µM.
Sequence of 5-hydroxytryptamine receptor 1B (P28564 whole entry): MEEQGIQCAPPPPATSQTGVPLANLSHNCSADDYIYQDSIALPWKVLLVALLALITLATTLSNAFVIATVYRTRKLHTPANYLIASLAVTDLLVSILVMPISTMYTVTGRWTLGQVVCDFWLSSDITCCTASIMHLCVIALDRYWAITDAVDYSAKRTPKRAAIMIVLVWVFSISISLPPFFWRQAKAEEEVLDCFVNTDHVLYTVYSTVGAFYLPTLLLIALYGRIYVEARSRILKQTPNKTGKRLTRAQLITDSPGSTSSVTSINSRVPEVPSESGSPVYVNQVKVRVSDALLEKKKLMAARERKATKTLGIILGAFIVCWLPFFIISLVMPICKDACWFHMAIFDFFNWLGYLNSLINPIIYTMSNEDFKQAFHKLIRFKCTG
The nature of assay [4]: DRUGMATRIX: ATPase, Na+/K+ enzyme inhibition (substrate: ATP). Type of assay: tissue-based, Sus scrofa, Heart. Particulars: Not Active = under 50% inhibition at 10 µM.
In another assay the target is T2, Endothelin-1 receptor (Homo sapiens, UniProt P25101). Also: in other assays of this panel Not Active means under 50% inhibition at 10 µM.
T2 sequence (P25101 whole entry): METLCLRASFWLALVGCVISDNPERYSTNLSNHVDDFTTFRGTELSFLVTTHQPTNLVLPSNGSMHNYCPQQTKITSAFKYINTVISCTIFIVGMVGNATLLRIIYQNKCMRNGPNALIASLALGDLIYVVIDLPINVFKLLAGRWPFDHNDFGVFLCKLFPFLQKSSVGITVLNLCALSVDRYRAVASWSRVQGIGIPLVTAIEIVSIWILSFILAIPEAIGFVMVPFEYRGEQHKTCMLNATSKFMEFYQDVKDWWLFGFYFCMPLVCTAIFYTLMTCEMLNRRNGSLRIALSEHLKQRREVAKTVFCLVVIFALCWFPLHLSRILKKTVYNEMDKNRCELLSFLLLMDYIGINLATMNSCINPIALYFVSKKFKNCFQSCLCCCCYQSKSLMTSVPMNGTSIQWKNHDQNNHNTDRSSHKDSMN
The class given is cell membranes, Membrane. As to conditions: cho-k1.

The next assay concerns the target Nitric oxide synthase 1 (Rattus norvegicus, UniProt P29476). The class given is tissue-based, Cerebellum. Also: in other assays of this panel Not Active means under 50% inhibition at 10 µM.

Sequence of Nitric oxide synthase 1 (P29476 whole entry): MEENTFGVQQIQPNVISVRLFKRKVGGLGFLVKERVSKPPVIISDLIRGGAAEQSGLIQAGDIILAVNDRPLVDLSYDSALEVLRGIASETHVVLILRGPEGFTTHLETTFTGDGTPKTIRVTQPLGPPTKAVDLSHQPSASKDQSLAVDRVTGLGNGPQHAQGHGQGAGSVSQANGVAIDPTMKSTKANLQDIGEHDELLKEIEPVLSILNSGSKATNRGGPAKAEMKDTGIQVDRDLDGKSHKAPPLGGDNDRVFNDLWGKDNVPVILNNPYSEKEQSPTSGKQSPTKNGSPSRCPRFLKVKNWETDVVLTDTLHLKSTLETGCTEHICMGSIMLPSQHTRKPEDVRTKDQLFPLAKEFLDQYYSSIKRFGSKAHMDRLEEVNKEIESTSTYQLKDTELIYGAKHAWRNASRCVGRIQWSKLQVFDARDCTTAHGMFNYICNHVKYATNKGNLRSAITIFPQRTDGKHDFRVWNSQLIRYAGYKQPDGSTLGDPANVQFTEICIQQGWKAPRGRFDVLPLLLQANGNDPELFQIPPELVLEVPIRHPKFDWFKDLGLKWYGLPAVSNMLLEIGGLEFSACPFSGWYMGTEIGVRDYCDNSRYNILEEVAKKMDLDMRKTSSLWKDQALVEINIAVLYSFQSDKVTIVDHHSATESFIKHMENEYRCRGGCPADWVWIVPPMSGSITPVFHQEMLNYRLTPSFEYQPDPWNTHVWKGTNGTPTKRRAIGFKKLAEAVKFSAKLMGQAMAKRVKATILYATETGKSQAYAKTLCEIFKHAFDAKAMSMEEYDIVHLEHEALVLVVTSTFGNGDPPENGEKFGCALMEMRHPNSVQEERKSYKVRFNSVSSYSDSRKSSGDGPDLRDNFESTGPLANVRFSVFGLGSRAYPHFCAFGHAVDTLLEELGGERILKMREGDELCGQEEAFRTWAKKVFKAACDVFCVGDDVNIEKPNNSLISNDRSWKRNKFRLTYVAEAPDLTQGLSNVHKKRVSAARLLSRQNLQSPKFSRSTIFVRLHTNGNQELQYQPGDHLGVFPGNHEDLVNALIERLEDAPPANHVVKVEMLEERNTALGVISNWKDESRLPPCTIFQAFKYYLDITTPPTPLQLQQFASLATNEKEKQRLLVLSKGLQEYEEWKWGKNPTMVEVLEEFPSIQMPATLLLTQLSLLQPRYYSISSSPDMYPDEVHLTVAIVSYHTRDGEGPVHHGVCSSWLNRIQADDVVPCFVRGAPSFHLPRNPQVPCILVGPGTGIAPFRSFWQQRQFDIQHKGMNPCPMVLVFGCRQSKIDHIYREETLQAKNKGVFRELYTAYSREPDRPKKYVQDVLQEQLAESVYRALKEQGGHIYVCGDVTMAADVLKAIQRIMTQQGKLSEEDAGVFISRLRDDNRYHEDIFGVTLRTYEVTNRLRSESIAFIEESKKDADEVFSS

Turning to `CCN(CC)CCOCCC1=CCC2CC1C2(C)C` (centres undefined) [MYRTECAINE], the IC50 result (in assay [1]; in assay [2]; in assay [3]; in assay [4]; against Endothelin-1 receptor; at Nitric oxide synthase 1) was “Not Active” each time. Besides, the Ki entry in assay [2] and in assay [4] was “Not Active” each time.

On to `O=C(O)c1cccnc1Nc1cccc(C(F)(F)F)c1` [NIFLUMIC ACID], for which the IC50 entry (in assay [1]; in assay [2]; in assay [3]; in assay [4]; against Endothelin-1 receptor; at Nitric oxide synthase 1) was “Not Active” each time. The Ki result in assay [2] and in assay [4] was “Not Active” in each case.

On to `O=C(N/N=C/c1ccc([N+](=O)[O-])o1)c1cc([N+](=O)[O-])cc([N+](=O)[O-])c1O` [NIFURSOL], for which the IC50 entry (in assay [1]; in assay [2]; in assay [3]; in assay [4]; against Endothelin-1 receptor; on Nitric oxide synthase 1) was “Not Active” throughout. In addition, the Ki entry in assay [2] and in assay [4] was “Not Active” throughout.

`COC(=O)Nc1nc2ccc(C(=O)c3cccs3)cc2[nH]1` [NOCODAZOLE]: the IC50 result (in assay [1]; in assay [2]; in assay [3]; in assay [4]; on Endothelin-1 receptor; against Nitric oxide synthase 1) was “Not Active” each time. Moreover, the Ki entry in assay [2] and in assay [4] was “Not Active” each time.

Take `C#CC1(O)CC[C@H]2[C@@H]3CCC4=CC(=O)CC[C@@H]4[C@H]3CC[C@@]21CC` (some centres undefined) [NORGESTREL]: the IC50 result (in assay [1]; in assay [2]; in assay [3]; in assay [4]; against Endothelin-1 receptor; against Nitric oxide synthase 1) was “Not Active” throughout. Further, the Ki entry in assay [2] and in assay [4] was “Not Active” throughout.

Regarding `COC(=O)Nc1nc2ccc([S+]([O-])c3ccccc3)cc2[nH]1` (centres undefined) [OXFENDAZOLE], the IC50 result (in assay [1]; in assay [2]; in assay [3]; in assay [4]; against Endothelin-1 receptor; against Nitric oxide synthase 1) was “Not Active” each time. Further, the Ki result in assay [2] and in assay [4] was “Not Active” in each case.

On to `CC(=O)O[C@H]1C(=O)[C@@]2(C)[C@H]([C@H](OC(=O)c3ccccc3)[C@]3(O)C[C@H](OC(=O)[C@H](O)[C@@H](NC(=O)c4ccccc4)c4ccccc4)C(C)=C1C3(C)C)[C@]1(OC(C)=O)CO[C@@H]1C[C@@H]2O` [PACLITAXEL], for which the IC50 result (in assay [1]; in assay [2]; in assay [3]; in assay [4]; at Endothelin-1 receptor; against Nitric oxide synthase 1) was “Not Active” in each case. For the same compound, the Ki result in assay [2] and in assay [4] was “Not Active” each time.

Consider `C[n+]1ccc(-c2cc[n+](C)cc2)cc1.[Cl-].[Cl-]` [PARAQUAT DICHLORIDE], for which the IC50 entry (in assay [1]; in assay [2]; in assay [3]; in assay [4]; at Endothelin-1 receptor; against Nitric oxide synthase 1) was “Not Active” throughout. For the same compound, the Ki entry in assay [2] and in assay [4] was “Not Active” throughout.

For the compound `CC(C)NCC(O)COc1cccc2[nH]ccc12` (centres undefined) [PINDOLOL], the IC50 result (in assay [1]; in assay [2]; in assay [3]; in assay [4]; against Endothelin-1 receptor; at Nitric oxide synthase 1) was “Not Active” each time. Also, the Ki result in assay [2] and in assay [4] was “Not Active” each time.

Turning to `CCn1cc(C(=O)O)c(=O)c2cnc(N3CCCC3)nc21` [PIROMIDIC ACID], the IC50 entry (in assay [1]; in assay [2]; in assay [3]; in assay [4]; against Endothelin-1 receptor; against Nitric oxide synthase 1) was “Not Active” each time. Further, the Ki result in assay [2] and in assay [4] was “Not Active” throughout.

For `C[n+]1ccccc1/C=N/O.[Cl-]` [PRALIDOXIME CHLORIDE], the IC50 entry (in assay [1]; in assay [2]; in assay [3]; in assay [4]; against Endothelin-1 receptor; against Nitric oxide synthase 1) was “Not Active” throughout. Also, the Ki entry in assay [2] and in assay [4] was “Not Active” throughout.

Consider `COc1cc2nc(N3CCN(C(=O)c4ccco4)CC3)nc(N)c2cc1OC` [PRAZOSIN], for which the IC50 result (in assay [1]; in assay [2]; in assay [3]; in assay [4]; on Endothelin-1 receptor; at Nitric oxide synthase 1) was “Not Active” each time. Besides, the Ki result in assay [2] and in assay [4] was “Not Active” throughout.

For `C[C@]12C=CC(=O)C=C1CC[C@@H]1[C@@H]2[C@@H](O)C[C@@]2(C)[C@H]1CC[C@]2(O)C(=O)CO` [PREDNISOLONE], the IC50 entry (in assay [1]; in assay [2]; in assay [3]; in assay [4]; against Endothelin-1 receptor; at Nitric oxide synthase 1) was “Not Active” throughout. Besides, the Ki result in assay [2] and in assay [4] was “Not Active” throughout.

Consider `CC(=O)[C@H]1[C@H](C#N)C[C@H]2[C@@H]3CC=C4C[C@@H](O)CC[C@]4(C)[C@H]3CC[C@@]21C` [PREGNENOLONE CARBONITRILE], for which the IC50 entry (in assay [1]; in assay [2]; in assay [3]; in assay [4]; on Endothelin-1 receptor; against Nitric oxide synthase 1) was “Not Active” each time. Further, the Ki result in assay [2] and in assay [4] was “Not Active” in each case.

For the compound `CCCN(CCC)S(=O)(=O)c1ccc(C(=O)O)cc1` [PROBENECID], the IC50 entry (in assay [1]; in assay [2]; in assay [3]; in assay [4]; against Endothelin-1 receptor; against Nitric oxide synthase 1) was “Not Active” throughout. Also, the Ki entry in assay [2] and in assay [4] was “Not Active” each time.

As for `CCCNCC(O)COc1ccccc1C(=O)CCc1ccccc1` (centres undefined) [PROPAFENONE], the IC50 result (in assay [1]; in assay [2]; in assay [3]; in assay [4]; on Endothelin-1 receptor; on Nitric oxide synthase 1) was “Not Active” in each case. The Ki result in assay [2] and in assay [4] was “Not Active” in each case.

Regarding `CCCOc1ccc(C(=O)OCCN(CC)CC)cc1N` [PROPARACAINE], the IC50 entry (in assay [1]; in assay [2]; in assay [3]; in assay [4]; at Endothelin-1 receptor; against Nitric oxide synthase 1) was “Not Active” each time. Also, the Ki result in assay [2] and in assay [4] was “Not Active” throughout.

As for `CC(C)c1cccc(C(C)C)c1O` [PROPOFOL], the IC50 result (in assay [1]; in assay [2]; in assay [3]; in assay [4]; at Endothelin-1 receptor; on Nitric oxide synthase 1) was “Not Active” in each case. Moreover, the Ki entry in assay [2] and in assay [4] was “Not Active” each time.

As to `C[C@@H]1O[C@@H](O[C@@H]2C=C3CC[C@@H]4[C@H](CC[C@]5(C)[C@@H](c6ccc(=O)oc6)CC[C@]45O)[C@@]3(C)CC2)[C@H](O)[C@H](O)[C@H]1O` [PROSCILLARIDIN], the IC50 entry (in assay [1]; in assay [2]; in assay [3]; on Endothelin-1 receptor; at Nitric oxide synthase 1) was “Not Active” each time. For the same compound, the Ki entry in assay [2] is recorded as “Not Active”. Also, in assay [4] (read-out: IC50), the pIC50 is 7.06.

For `Oc1cccc(O)c1O` [PYROGALLOL], the IC50 entry (in assay [1]; in assay [2]; in assay [3]; in assay [4]; on Endothelin-1 receptor; against Nitric oxide synthase 1) was “Not Active” each time. The Ki entry in assay [2] and in assay [4] was “Not Active” each time.

As usually defined, the pIC50 is the IC50 on a negative log10 scale, so that one unit is a factor of ten.

These data come from ChEMBL document CHEMBL1909046, “DrugMatrix in vitro pharmacology data”.
